Patent US8071531B2, “Flavor and fragrance composition” (Takasgo International Corporation, priority 2006, dated 2011)

Assay: Oral sensory evaluation of an aqueous solution by seven expert panelists
Format: in vivo
Description: Oral evaluation of an aqueous solution of (1R,2R,4R)-1-(2-hydroxy-4-methylcyclohexyl)ethanone obtained in Synthesis Example 1 was carried out by seven expert panelists.

CC(=O)[C@@H]1CC[C@@H](C)C[C@H]1O [(1R,2R,4R)-1-(2-hydroxy-4-methylcyclohexyl)ethanone]
appearance of refreshing feeling and taste (aqueous solution, oral evaluation): relatively rapid with clear refreshing feeling without unpleasant taste
Cool and refreshing feeling of the aqueous solution, equivalent concentration of menthol (at a concentration of 50 ppm in aqueous solution): 10 ppm
